# Assays:
# [1] = molecular target: T1, Avi-KRAS G12C (1-169) GppNHp/RAF1 RBD-3×FLAG (52-151) (Homo sapiens, UniProt P01116, G12C); experiment: Raf1 RBD-KRAS G12C-GppNHp disruption assay (protein:protein interaction HTRF); type: biochemical
# T1 construct: Avi-KRAS G12C (1-169) GppNHp; Avi (N)
# Outline: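 HTRF measuring RAF1 RBD binding to GppNHp-loaded KRAS G12C (50 nM) in Tris pH 7.5, 100 mM NaCl, 5 mM MgCl2, 10% DMSO. Compound, KRAS, RBD and detection reagents each added sequentially with 1 h room-temperature incubations; 10-point titration; excitation 320 nm, emission 615 nm; activity as % of DMSO; IC50 derived.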
# pERK in NCI-H358 cells = experiment: Cell-based pERK HTRF assay (pERK inhibition in H358 cells); conditions: Homo sapiens, NCI-H358, 0.5 h, 30 min incubation
# Outline: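 NCI-H358 cells were seeded at 4×10^4 cells/well in RPMI/10% FBS, then treated next day for 30 min at 0.25% DMSO (9-point, 3-fold series from 75 μM). Lysates were read by HTRF (d2/Eu cryptate antibody pair, 615 nm emission) after 4–24 h at room temperature to give pERK IC50.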
# T1 sequence (P01116 1-169 isoform P01116-2 G12C limits assumed): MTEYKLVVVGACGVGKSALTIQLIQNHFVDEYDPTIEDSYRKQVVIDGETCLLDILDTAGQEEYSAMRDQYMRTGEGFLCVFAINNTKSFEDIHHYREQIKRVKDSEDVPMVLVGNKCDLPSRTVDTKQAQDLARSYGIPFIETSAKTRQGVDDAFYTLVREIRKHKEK
Compound,IC50 [1] [nM],IC50 (pERK in NCI-H358 cells) [nM]
C=CC(=O)N1CCC(N(C)c2nc(OC[C@@]34CCCN3C[C@H](F)C4)nc3c(F)c(-c4ccc(F)c5sc(N)c(C#N)c45)c(Cl)cc23)[C@H]1CC (stereo partly shown) [Compound 2],500 to 5000,< 100
C=CC(=O)N1CC[C@@H](N(CC)c2nc(OC[C@@H]3CCCN3C)nc3c(F)c(-c4ccc(F)c5sc(N)c(C#N)c45)c(Cl)cc23)[C@H]1C [Compound 58],< 500,< 100
C=CC(=O)N1CC[C@@H](N(C)c2nc(OC[C@@]34CCCN3C[C@H](F)C4)nc3c(F)c(-c4nc(N)cc(C)c4C(F)(F)F)c(C(F)(F)F)cc23)[C@@H]1C [Compound 91],< 500,< 100
C=CC(=O)N1CC[C@@H](N(C)c2nc(OCC3(CN4CCOCC4)CC3)nc3c(F)c(-c4ccc(F)c5sc(N)c(C#N)c45)c(C(F)(F)F)cc23)[C@H]1C [Compound 87],< 500,< 100
C=CC(=O)N1CCC(N(C)c2nc(OC[C@@H]3CCCN3C3CC3)nc3c(F)c(-c4ccc(F)c5sc(N)c(C#N)c45)c(C(F)(F)F)cc23)[C@H]1C (stereo partly shown) [Compound 1],< 500,100 to 1000
C=CC(=O)N1CC[C@@H](N(C)c2nc(OC[C@@H]3C[C@@H](OC)CN3CC)nc3c(F)c(-c4ccc(F)c5sc(N)c(C#N)c45)c(Cl)cc23)[C@H]1C [Compound 99],< 500,< 100

# The remaining lines, values ahead:
IC50 [1] [nM],IC50 (pERK in NCI-H358 cells) [nM],Compound
< 500,< 100,"C=CC(=O)N1CC[C@@H](N(CC)c2nc(OC[C@@H]3C[C@@H](OC)CN3C)nc3c(F)c(-c4ccc(F)c5sc(N)c(C#N)c45)c(C(F)(F)F)cc23)[C@H]1C [Compound 45, 4-(4-(((2R,3R)-1-acryloyl-2-methylpyrrolidin-3-yl)(ethyl)amino)-8-fluoro-2-(((2S,4R)-4-methoxy-1-methylpyrrolidin-2-yl)methoxy)-6-(trifluoromethyl)quinazolin-7-yl)-2-amino-7-fluorobenzo[b]thiophene-3-carbonitrile]"
< 500,< 100,C=CC(=O)N1CC[C@@H](N(CC)c2nc(OC[C@@H]3C[C@@H](F)CN3C)nc3c(F)c(-c4ccc(F)c5sc(N)c(C#N)c45)c(Cl)cc23)[C@H]1C [Compound 60]
< 500,100 to 1000,C=CC(=O)N1CC[C@@H](N(C)c2nc(N3CC(N(C)C)C3)nc3c(F)c(-c4ccc(F)c5sc(N)c(C#N)c45)c(C(F)(F)F)cc23)[C@H]1C [Compound 80]
< 500,< 100,C=CC(=O)N1CC[C@@H](N(C)c2nc(OC[C@@H]3C[C@@H](F)CN3C)nc3c(F)c(-c4ccc(F)c5sc(N)c(C#N)c45)c(Cl)cc23)[C@H]1C [Compound 61]
< 500,< 100,C=CC(=O)N1CC[C@@H](N(C)c2nc(OC[C@@H]3C[C@@H](F)CN3C)nc3c(F)c(-c4ccc(F)c5sc(N)c(C#N)c45)c(Cl)cc23)[C@@H]1C [Compound 82]

# Source: patent US20260232666A1, “COMPOSITIONS AND METHODS FOR INHIBITION OF RAS” (TheRas, Inc., priority 2023, published 2026)
